Consider 2 compounds from patent publication US12053452B2 (priority 2021, dated 2024).

Entries after “also recorded” stand apart in the source; their conditions may differ.

Common to all, as to assay type: in vivo
For data set [1], the system named is BTBR mice. Nature of the data set: Social preference procedure: compartment entries (proxy for locomotor stimulant effects), BTBR. The procedure: (§1) This assay was conducted in adult male C57 and BTBR mice (n=6 per group) in a dedicated conditioning room where ambient light, sound, and human contact were tightly controlled. Social preference chambers consist of two polycarbonate boxes (13.5 cm wide×22.5 cm tall×31.0 cm deep), floored with rough-textured black ABS plastic, and connected to one another by a 1.25″ PVC T-junction. An infrared photobeam emitter/detector array is mounted at each intersection of the T-junction and each preference compartment, and as a mouse traversed the apparatus, it would break the photobeam upon entry to or exit from each preference compartment. Beam breaks started or stopped a counter on an interfaced computer, allowing automated collection of time spent in each compartment. At the end of each test, data were reported as time (in seconds) spent in each compartment, the number of entries into each compartment, and the average time spent in each compartment following an entry. Social preference tests were conducted in an iterative manner, with each test subject completing four distinct phases as described below. Between testing sessions, chambers were sanitized by wiping the insides with a disinfectant product provided by the UAMS Department of Laboratory Animal Medicine. At the end of the week (upon completion of all phases of the procedure), each apparatus was disassembled and all parts were sanitized. No food or water were available during social preference sessions, but were available in the home cage immediately afterwards.
Quantification of total entries into the preference compartments provided a proxy measurement for locomotor stimulant effects of the various doses of the various test drugs. This established a limit to the drug doses that can be tested in the social preference procedure, as induction of locomotor stimulant effects confounds preference assessments (because mice stop attending to the social stimuli in each compartment and instead spend their time engaged in locomotor behavior.) Motor activity varied across the distinct phases of social preference testing, in part because the habituation session is twice as long (30 minutes) as the novelty, sociability, and social novelty tests (15 minutes each), but also because mice emitted high levels of exploratory behavior in novel environments. Thus, as familiarity with the test apparatus increased over successive exposures to the chambers, the number of entries decreased.
(Note that entries were collected for every test, but drug effects on entries during earlier phases may be less reliable due to the confounding influence of changing familiarity with the apparatus across phases.)

Data set [2] has as its system BTBR mice. Nature of the data set: Radiotelemetry of locomotor activity, BTBR. To be noted: for pattern of locomotor activity / dose-effect curve: any dose; for locomotor activity: 0 to 240 minutes. As to the method: (§2) The radiotelemetry assay was conducted in adult male C57 and BTBR mice (n=6 per group) in a dedicated testing room where ambient light, sound, and human contact were tightly controlled.
(§3) Prior to surgical implantation of radiotelemetry probes, mice received 3 mg/kg meloxicam (IP), and anesthesia was induced with 4% inhaled isoflurane and maintained with 1-3% isoflurane (as needed) throughout the procedure at a flow rate of 1.5 litres/minute. The abdominal area of each animal was treated with depilatory cream, then sanitized with 3 alternating scrubs with iodine and alcohol. A rostral-caudal cut approximately 1.5 cm in length was made with sterile skin scissors, providing access to the intraperitoneal cavity. A cylindrical glass-encapsulated radiotelemetry probe (model ER-4000 E-Mitter, Mini Mitter, Bend, OR, USA) was then inserted. These probes measure 15.5 mm×6.5 mm and weigh approximately 1 gram. Incisions were closed (skin layer and muscle layer separately) using reverse cutting 5-0 Vicryl absorbable sutures for the muscle layer and 5-0 nylon suture material for the skin layer. Surgeries were carried out at least 7 days before initiation of experimental conditions, allowing time for incisions to heal and for animals to recover normal body weights. Following surgery, all implanted mice were individually housed in Plexiglas cages within the telemetry room for the duration of all experiments. Implanted transmitters produce activity- and temperature-modulated signals which are sent to a receiver (model ER-4000 Receiver, Mini Mitter Co., Inc.) underneath each cage. Following use, telemetry probes were removed from carcasses, wiped with alcohol swabs, and stored in the disinfectant solution until re-use.
(§4) At least 7 days after surgical implantation of radiotelemetry probes, mice in their individual home cages were placed atop a telemetry energizer/receiver, which powered probes and transmitted their data to an interfaced computer. Upon initiation of an experimental session, the computer collected two data updates from the probes at 5 min intervals: core temperature (in ° C.) on one channel, and locomotor counts (in arbitrary units, depending on the relative position of the probe atop the receiver) on the other. After at least 60 minutes of baseline data collection, mice were removed from their cages, injected with saline or a given dose of a specific drug, then returned to the home cage 24 hours of data collection.
(§5) Food and water were always freely available in the home cage. Mice were injected with ascending doses of a given drug, with at least 48 hours separating doses. Because there are few studies of drug effects in BTBR mice, the first drug dose tested occasionally elicited unexpectedly large locomotor effects in these animals. In these cases, smaller drug doses were tested next, after a washout period of at least one full day.

In data set [3] the test system is C57 mice. Briefly: Novelty preference test, C57. As to the method: as §1
A single novelty preference session occurred the day after the habituation test, where one compartment contained an empty wire mesh cup and the other compartment contained an identical wire mesh cup with a novel dummy mouse inside. The position of the dummy mouse (left or right compartment) was counterbalanced across subjects. Dummy mice were constructed from 2.5″ lengths of white ¾″ PVC pipe, with a zip tie attached to one end (to mimic a tail) and two red dots drawn on the other end (to mimic eyes.) During this session, mice were weighed, administered an injection, and returned to their home cage for a 30 min pretreatment period. Mice were then introduced into the T-junction and allowed to explore both preference compartments for 15 minutes. These tests were conducted as a procedural control to ensure that any observed drug effects were not simply due to enhancement of the innate novelty preference of mice. Novelty preference sessions always occurred on Tuesdays or Wednesdays to prevent any weekend testing.

Data set [4] deals with BTBR mice. Nature of the data set: Novelty preference test, BTBR. The note with it: all tested doses IP. The procedure:
as §1, with “At the end of the week (upon completion of all phases of the procedure), each apparatus was disassembled and all parts were sanitized. No food or water were available during social preference sessions, but were available in the home cage immediately afterwards.” left out

Data set [5] deals with BTBR mice. Nature of the data set: Social novelty preference test, BTBR (autism spectrum disorder model). The note with it: BTBR mice. The procedure:
as §1
A single social novelty preference session occurred the day after the sociability test, where one compartment contained a wire mesh cup with the same NIH Swiss mouse from the previous day inside (referred to now as the “familiar” mouse) while the other compartment contained a new male NIH Swiss stranger mouse inside the cup which previously contained the dummy mouse during the sociability test. […]

The subject of data set [6] is C57 mice. Briefly: Radiotelemetry of core temperature, C57. The procedure:
as §2, §3, §4, §5

Data set [7] has as its system C57 mice. Briefly: Social novelty preference test, C57. As to the method: as §1
A single social novelty preference session occurred the day after the sociability test, where one compartment contained a wire mesh cup with the same NIH Swiss mouse from the previous day inside (referred to now as the “familiar” mouse) while the other compartment contained a new male NIH Swiss stranger mouse inside the cup which previously contained the dummy mouse during the sociability test. […] The position of the now familiar NIH Swiss mouse (left or right compartment) remained the same for each subject as during the sociability test the day before, thereby counterbalancing the position of the new NIH Swiss stranger mouse across subjects. As before, the new NIH Swiss stranger mice were housed separately from the experimental subjects (C57 and BTBR mice) in the colony facility, and the first time the experimental subjects ever encountered them was when they entered the compartment where they were contained. During this session, mice were weighed, administered the same injection as the day before, and returned to their home cage for a 30 min pretreatment period. Mice were then introduced into the T-junction and allowed to explore both preference compartments for 15 minutes. Social novelty tests always occurred on Thursdays or Fridays to prevent any weekend testing.

Turning to `CNC(C)Cc1ccc2c(c1)OCO2` (racemic) [racemic MDMA, 1-(1,3-benzodioxol-5-yl)-N-methylpropan-2-amine], the “compartment entries (locomotor stimulant effect)” value with BTBR mice [1] (3.0 mg/kg IP, social novelty test) was “increased the number of entries”; in the data set with BTBR mice [1] (5.6 mg/kg IP, social novelty test) it was ~100 entries; in the data set on BTBR mice [1] (all tested doses IP), “dose-response stimulant effect”. Also, in the data set with BTBR mice [2], the “pattern of locomotor activity / dose-effect curve” value was “No evidence of motor stereotypy; also recorded: does not follow this biphasic pattern”. Besides, the “novelty preference (time spent with the dummy mouse)” value is “had no effects on locomotor activity (see FIG. 4) or novelty preference” in the data set with C57 mice [3] (3.0 mg/kg IP), “elicited avoidance of the dummy mouse” in the data set with C57 mice [3] (5.6 mg/kg IP) and “No dose of racemic MDMA (e.g comparative composition 1) or S(+)-MDMA (e.g comparative composition 3) elicited any effects on novelty preference” in the data set with BTBR mice [4]. Moreover, the “social novelty preference (new stranger mouse vs familiar mouse)” value in the data set on BTBR mice [5] (all doses IP) is reported as “exhibiting preferences for the stranger mouse”; with C57 mice [7] (3.0 mg/kg IP, 3 mg/kg) it was “strong preference for the stranger over the now familiar mouse”; in the data set with C57 mice [7] (3.0 mg/kg IP, listed as racemic (50/50) MDMA, 3 mg/kg) it was “elicit significant effects on sociability”; with C57 mice [7] (various doses IP) it was “dose-dependent increase in time spent with the stranger mouse”; in the data set on C57 mice [7] (various doses IP, listed as Racemic MDMA) it was “bi-phasic dose-response preference for stranger mouse over familiar mouse, with maximum preference documented at 3 mg/kg dose”. Besides, the “effect on core temperature” value with C57 mice [6] (10 mg/kg IP) is listed as “induced a drop in core temperature”; in the data set on C57 mice [6] (various/increasing doses IP) it was “gradual increase in core temperature”. Moreover, the “rise in core temperature” value with C57 mice [6] (56 mg/kg IP) is on record as ~2 degrees C.

For the compound `CN[C@@H](C)Cc1ccc2c(c1)OCO2` [S(+)-MDMA, (2S)-1-(1,3-benzodioxol-5-yl)-N-methylpropan-2-amine], the “compartment entries (locomotor stimulant effect)” value in the data set with BTBR mice [1] (3.0 mg/kg IP, social novelty test, 3 mg/kg) is “roughly equivalent entries to 3.0 mg/kg racemic MDMA”; with BTBR mice [1] (3.0 mg/kg IP, social novelty test, listed as S-MDMA, 3 mg/kg) it was “increased the number of entries”; with BTBR mice [1] (all tested doses IP), “dose-response stimulant effect”. Further, the locomotor activity result in the data set on BTBR mice [2] (10 mg/kg IP) is listed as “elicited a substantially large stimulation in motor activity”; in the data set on BTBR mice [2] (30 mg/kg IP), “elicited a large stimulation in motor activity”. Also, the “pattern of locomotor activity / dose-effect curve” value in the data set with BTBR mice [2] is recorded as “No evidence of motor stereotypy”. Further, the “novelty preference (time spent with the dummy mouse)” value with C57 mice [3] (various doses IP) is on record as “no systematic effects on novelty preference”; in the data set with BTBR mice [4], “No dose of racemic MDMA (e.g comparative composition 1) or S(+)-MDMA (e.g comparative composition 3) elicited any effects on novelty preference”. The “social novelty preference (new stranger mouse vs familiar mouse)” value is “elicited a strong preference for the stranger mouse” with BTBR mice [5] (3.0 mg/kg IP); “not different from saline” in the data set on C57 mice [7] (3.0 mg/kg IP); “does not elicit any substantial preference for the stranger mouse” in the data set on C57 mice [7] (3.0 mg/kg and 5.6 mg/kg IP); “no systematic effects on social novelty preference” in the data set on C57 mice [7] (various doses IP). The “effect on core temperature” value in the data set with C57 mice [6] (10 mg/kg IP) is listed as “elicited an increase in temperature”; in the data set on C57 mice [6] (30 mg/kg IP), “elicits significant hyperthermia”; with C57 mice [6] (various/increasing doses IP) it was “dose-dependent increase in temperature”. Moreover, the “jump in core temperature” value in the data set on C57 mice [6] (18 mg/kg i.p) is “greater than that observed by administration of 56 mg/kg i.p of Racemic MDMA”. Further, the “lethality during core temperature recording” value in the data set with C57 mice [6] (approximately 5-8 hrs after injection) was “one animal experiencing profound hypothermia before expiring”.
